Results as given in patent US5079247A, “N^1 -substituted benz(cd)indol-2-imine compounds as cardiovascular agents” (American Cyanamid Company, priority 1990, dated 1992).

Assays:
[1] = target: T1, thromboxane synthetase enzyme (Rattus norvegicus, UniProt P49430); assay: Thromboxane synthetase enzyme inhibition (TXB2 formation in platelet suspension, RIA); type: cell-based, Okamoto-Aoki spontaneously hypertensive rats (SHR); conditions: concentration 1 × 10^-4 M; SHR platelet suspension, 10 minutes at 37° C.
T1 construct: The platelets were isolated by centrifuging the PRP for 10 minutes; from tissue; host or cells: washed platelets from arterial blood of Okamoto-Aoki spontaneously hypertensive rats (animals from Taconic Farms)
T1 sequence (P49430 1-533): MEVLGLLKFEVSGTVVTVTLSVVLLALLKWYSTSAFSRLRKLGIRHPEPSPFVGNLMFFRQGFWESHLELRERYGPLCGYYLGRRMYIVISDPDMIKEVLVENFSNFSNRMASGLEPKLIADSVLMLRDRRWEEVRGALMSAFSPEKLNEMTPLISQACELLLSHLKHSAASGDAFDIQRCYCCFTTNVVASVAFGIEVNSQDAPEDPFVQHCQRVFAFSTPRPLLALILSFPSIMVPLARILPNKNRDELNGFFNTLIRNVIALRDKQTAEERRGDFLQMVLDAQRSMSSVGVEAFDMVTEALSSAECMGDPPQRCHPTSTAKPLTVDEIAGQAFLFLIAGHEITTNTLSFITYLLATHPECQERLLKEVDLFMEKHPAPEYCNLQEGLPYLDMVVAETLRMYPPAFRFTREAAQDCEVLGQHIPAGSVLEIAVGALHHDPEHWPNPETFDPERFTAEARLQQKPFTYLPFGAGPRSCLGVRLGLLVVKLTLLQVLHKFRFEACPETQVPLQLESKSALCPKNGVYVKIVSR
Protocol: Under urethan anethesia, […] of arterial blood from Okamoto-Aoki spontaneously hypertensive rats (SHR) (Taconic Farms, Germantown, New York) between 19 and 24 weeks in age was collected in 1 ml of 3.2% sodium citrate in a polystyrene tube. The blood was diluted with 3 ml of cold saline and centrifuged at room temperature for 15 minutes at 460Xg. The platelet rich plasma (PRP) was separated. The platelets were isolated by centrifuging the PRP for 10 minutes at 1060Xg and were washed in 4 ml of cold oxygenated Krebs phosphate buffer, pH 7.4. The chilled platelets, recovered from centrifuging at 800Xg for 10 minutes, were resuspended in oxygenated Krebs phosphate buffer and diluted to contain 4.5-6.0×10^4 platelets/μl. The inhibition of thromboxane (TX) formation was studied by determining the concentration of thromboxane B2 (TXB2), the stable hydrolysis product of TXA2. Assay samples, prepared on ice, contained 200 μl platelet suspension, 50 μl saline, and 50 μl vehicle or drug under study at a concentration of 1×10^-4 M. The samples were incubated for 10 minutes at 37° C. in metabolic shaker. The reaction was terminated by immersing the tubes in an ice bath and adding 50 μl of 0.5M citric acid. The samples were centrifuged for 10 minutes in a refrigerated centrifuge and the supernatants thus obtained were decanted and stored at -20° C. The TXB2 content for each sample was determined by a direct radioimmunoassay (RIA) utilizing a TXB2 specific RIA kit purchased from New England Nuclear, Boston, Massachusetts and expressed as pg TXB2 formed minute^-1 sample^-1, from which the percent inhibition of TXB2 formation was calculated.

[2] = system: spontaneously hypertensive rats of the Okamoto strain; assay: Hypotensive activity in spontaneously hypertensive rats (method of Chan and Poorvin); type: in vivo, rat; conditions: by gavage, 100 mg/kg or less, two doses 24 hours apart; MABP at 28 hours after initial dose; average baseline MABP 160±1.5 mm of mercury
Protocol: The novel compounds of the present invention are active hypotensive agents and were tested for hypotensive activity by the method of P. S. Chan and D. Poorvin, Clinical and Experimental Hypertension, 1 (6), 817-830 (1979). Male, 16 week old, spontaneously hypertensive rats of the Okamoto strain, from Taconic Farms, Germantown, New York, having an average mean arterial blood pressure of 160±1.5 mm of mercury, were used in the test. One to 3 rats were used per test compound. […] A second identical dose of the test compound, without sodium chloride loading was given 24 hours later. At 28 hours after the initial dose the mean arterial blood pressure (MABP) was measured. The procedure was repeated in a second and third rat when necessary.

[3] = system: CaCl2-induced cardiac arrhythmias, fibrillation and cardiac death in mice; assay: Antiarrhythmic/antifibrillatory activity in anesthetized mice, calcium chloride challenge; type: in vivo, mice of the Swiss Webster Strain; conditions: Mus musculus, iv, 0.25 h; Dose = 10 mg/kg I.V.; calcium chloride 200 mg/kg i.v.; 15 minutes observation; read-out: CaCl2 Mice Surviving / Mice Tested (converted)
Description: (§1) Intravenous administration of high doses of calcium or potassium chloride in animals produces cardiac arrhythmias, cardiac fibrillation and cardiac arrest. Any agent that can prevent these events is considered an antiarrhythmic/antifibrillatory agent. (Meth. and Find Exptl. Clin Pharmacal.2:223-252(1980); Pharmacol Ther. 24:401-433 (1984); Experimental Cardiac and Antiarrhythmic Drugs, L. Szekeres and Gy. J. Dapp, Akademiai Kiado Preso, Budapest, 9-448 (1971)).
(§2) The method employed is as follows: Male mice of the Swiss Webster Strain (Charles River, Wilmington, MA) weighing 25-35 g were anesthetized with ethyl carbamate (urethan) (1.5g/kg body weight i.p.). A 25-gauge needle attached to PE-20 tubing was inserted into a caudal vein for drug administration. The lead II ECG was recorded by needle electrodes placed subcutaneously in the limbs. All data were collected on a Gould Brush recorder. Animals were observed 5 minutes before drug administration. A 5, 15 or 30 minute period following drug administration was allowed before the bolus injection of calcium chloride, 200 mg/ kg i.v. or potassium chloride, 62.5 mg/kg i.v. Control mice received 4 ml/kg of 0.9% sodium chloride i.v. Mice were observed an additional 15 minutes for arrhythmias,fibrillation, survival or death. Any compound at a dose of less than 20 mg/kg i.v. in either test that protects from cardiac death 3 or more mice out of 6 mice, is considered active.

[4] = system: KCl-induced cardiac arrhythmias, fibrillation and cardiac death in mice; assay: Antiarrhythmic/antifibrillatory activity in anesthetized mice, potassium chloride challenge; type: in vivo, mice of the Swiss Webster Strain; conditions: Mus musculus, iv, 0.25 h; Dose = 10 mg/kg I.V.; potassium chloride 62.5 mg/kg i.v.; 15 minutes observation; read-out: KCl Mice Surviving / Mice Tested (converted)
Description: as §1, §2

Compound | inhibition at 100 µM [1] | Avg. MABP in mm Hg (No. of Rats) [2] | responders at 10 mg/kg [3] | responders at 10 mg/kg [4]
c1ccc(CN2C(=NCCCCn3ccnc3)c3cccc4cccc2c34)cc1 [Example 23, N-[1-(Phenylmethyl)benz[cd]indol-2(1H)-ylidene-1H-imidazole-1-butanamine,(E)-2-butenedioate (1:2)] | 100% | 124 mm Hg | 33.3% | 100%
N#CCCCCN1C(=NCCCCc2cccnc2)c2cccc3cccc1c23 [Example 32, N2-[[4-(3-Pyridinyl)butyl]imino]benz[cd]indole-1(2H)-pentanenitrile, (E)2-butenedioate (4:7)] | 98% | 129 mm Hg | 33.3% | 83.3%
CC(CCn1ccnc1)N=C1c2cccc3cccc(c23)N1C(c1ccccc1)c1ccccc1 (stereo not drawn) [Example 35, N-[1-(Diphenylmethyl)benz[cd]indol-2(1H)-ylidene]alpha-methyl-1H-imidazole-1-propanamine] | 88% | 127 mm Hg | 0% | 50%
CN1C(=NCCCCc2cccnc2)c2cccc3cccc1c23 [Example 27] | 100% | 107 mm Hg | 58.3% | 50%
c1cc2c3c(cccc3c1)N(CCN1CCOCC1)C2=NCCCn1ccnc1 [Example 8, N-[1-[2-(4-Morpholinyl)ethyl]benz[cd]indol-2(1H)-ylidene-1H-imidazole-1-propanamine, (E)-2-butenedioate (1:2)] | 96% | 119 mm Hg | 0% | 83.3%
CN1C(=NCCCc2cccnc2)c2cccc3cccc1c23 [Example 26, N-(1 Methylbenz[cd]indol-2(1H) -ylidene)-3-pyridinepropanamine, (E)-2-butenedioate (2:3)] | 93% | 114 mm Hg | 16.7% | 33.3%
